Laboratory results from ChEMBL document CHEMBL1201862, “PubChem BioAssay data set” (2004).
Calls of active or inactive are those of the source.

Key:
[1] = molecular target: T1, Carboxy-terminal domain RNA polymerase II polypeptide A small phosphatase 1 (Homo sapiens, UniProt Q9GZU7); assay: CTDSP1 inhibitors, concentration-response, biochemical, absorbance readout, ultra-high-throughput screen actives (AID 540297); format: functional
T1 sequence (Q9GZU7 whole entry): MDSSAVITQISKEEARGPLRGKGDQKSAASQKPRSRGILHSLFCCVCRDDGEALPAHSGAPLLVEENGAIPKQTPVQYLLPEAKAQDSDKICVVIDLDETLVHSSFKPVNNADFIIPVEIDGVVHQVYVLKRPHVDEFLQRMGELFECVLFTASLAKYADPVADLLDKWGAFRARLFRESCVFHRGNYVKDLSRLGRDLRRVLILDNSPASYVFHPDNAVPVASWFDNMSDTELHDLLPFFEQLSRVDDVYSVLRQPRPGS

[2] = molecular target: Eukaryotic translation initiation factor 4E (Mus musculus, UniProt P63073); assay: blockers of eIF4G binding by eIF4E – biochemical, TR-FRET, dose response (AID 855); format: functional;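 note: potency for disrupting eIF4E binding to eIF4GI seen as loss of FRET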
[3] = molecular target: T2, Long-chain-fatty-acid--AMP ligase FadD28 (Mycobacterium tuberculosis, UniProt P9WQ59); assay: Fluorescence polarization aasay to screen for inhibitors that compete for the binding of FadD28 to a bisubstrate Measured in Biochemical System Using Plate Reader - 2147-01_Inhibitor_Dose_CherryPick_Activity.; format: functional, Mycobacterium tuberculosis H37Rv
T2 sequence (P9WQ59 whole entry): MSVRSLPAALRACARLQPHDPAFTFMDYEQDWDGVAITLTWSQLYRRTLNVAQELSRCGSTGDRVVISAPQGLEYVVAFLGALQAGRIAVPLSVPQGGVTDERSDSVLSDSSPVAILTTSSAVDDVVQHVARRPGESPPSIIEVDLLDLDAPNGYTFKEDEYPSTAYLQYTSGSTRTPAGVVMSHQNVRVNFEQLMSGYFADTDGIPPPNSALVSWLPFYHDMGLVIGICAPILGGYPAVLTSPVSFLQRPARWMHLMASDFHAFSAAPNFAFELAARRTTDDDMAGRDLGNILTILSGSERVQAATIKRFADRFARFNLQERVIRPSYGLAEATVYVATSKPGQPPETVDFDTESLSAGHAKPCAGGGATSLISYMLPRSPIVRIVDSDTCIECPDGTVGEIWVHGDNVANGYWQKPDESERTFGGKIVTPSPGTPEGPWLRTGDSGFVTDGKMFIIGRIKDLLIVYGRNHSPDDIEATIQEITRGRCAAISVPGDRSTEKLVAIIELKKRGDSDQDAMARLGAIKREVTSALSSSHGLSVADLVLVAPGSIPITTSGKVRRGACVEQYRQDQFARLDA

[4] = molecular target: T3, Histone-lysine N-methyltransferase NSD2 (Homo sapiens, UniProt O96028); format: biochemical
T3 sequence (O96028 whole entry): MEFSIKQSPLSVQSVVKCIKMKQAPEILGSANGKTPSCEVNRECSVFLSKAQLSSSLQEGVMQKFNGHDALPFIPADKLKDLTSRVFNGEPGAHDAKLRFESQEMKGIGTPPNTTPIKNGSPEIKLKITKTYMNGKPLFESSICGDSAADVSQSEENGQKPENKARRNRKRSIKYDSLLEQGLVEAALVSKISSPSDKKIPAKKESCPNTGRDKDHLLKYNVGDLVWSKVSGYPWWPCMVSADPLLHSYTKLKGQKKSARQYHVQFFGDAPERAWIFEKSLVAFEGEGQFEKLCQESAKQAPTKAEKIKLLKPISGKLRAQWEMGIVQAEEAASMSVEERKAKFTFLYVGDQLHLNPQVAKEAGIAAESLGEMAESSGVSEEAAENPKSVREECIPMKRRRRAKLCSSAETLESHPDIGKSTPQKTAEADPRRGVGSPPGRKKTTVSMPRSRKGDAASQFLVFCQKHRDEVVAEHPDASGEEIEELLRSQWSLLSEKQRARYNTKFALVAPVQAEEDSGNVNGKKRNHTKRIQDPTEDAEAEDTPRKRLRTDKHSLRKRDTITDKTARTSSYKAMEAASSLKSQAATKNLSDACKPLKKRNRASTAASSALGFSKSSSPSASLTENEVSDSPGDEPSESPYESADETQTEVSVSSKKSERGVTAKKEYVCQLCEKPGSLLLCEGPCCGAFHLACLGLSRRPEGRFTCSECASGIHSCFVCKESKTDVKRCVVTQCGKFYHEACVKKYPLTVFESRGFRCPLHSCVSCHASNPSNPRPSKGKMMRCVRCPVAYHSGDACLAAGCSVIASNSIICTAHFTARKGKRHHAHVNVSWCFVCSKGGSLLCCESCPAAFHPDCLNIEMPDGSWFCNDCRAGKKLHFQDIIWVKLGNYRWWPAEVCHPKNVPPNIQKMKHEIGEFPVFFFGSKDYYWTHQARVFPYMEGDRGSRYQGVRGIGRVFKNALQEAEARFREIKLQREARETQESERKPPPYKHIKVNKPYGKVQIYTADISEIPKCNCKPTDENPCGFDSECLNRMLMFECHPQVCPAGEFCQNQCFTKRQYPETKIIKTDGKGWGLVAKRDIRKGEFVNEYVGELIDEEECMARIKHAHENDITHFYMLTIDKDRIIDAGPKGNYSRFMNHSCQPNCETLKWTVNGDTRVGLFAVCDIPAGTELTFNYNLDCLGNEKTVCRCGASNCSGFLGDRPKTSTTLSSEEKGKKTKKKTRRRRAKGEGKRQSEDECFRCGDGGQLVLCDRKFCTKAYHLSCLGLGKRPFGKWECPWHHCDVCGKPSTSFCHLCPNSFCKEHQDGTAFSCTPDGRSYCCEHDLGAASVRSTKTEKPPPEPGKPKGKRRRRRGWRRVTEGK

[5] = molecular target: Kallikrein-7 (Homo sapiens, UniProt P49862); assay: Fluorescence Intensity-based biochemical primary high throughput dose response assay to identify activators of kallikrein-7 (K7) zymogen.
[6] = test system: Vero; assay: cells; format: functional; details: Chlorocebus sabaeus
[7] = blockade of melanocortin 4 receptor signaling – cell-based, plate reader, cherry pick, counter-screen for LGR2 antagonist project, dose response (AID 743444); format: functional;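 note: transfected HEK 293 cells stimulated with alpha-MSH peptide; potency of inhibitors of the alpha-MSH evoked signal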
[8] = viability loss in HEK293 cells – cell-based, plate reader, cherry-picked samples, cytotoxicity control, dose response (AID 743446); format: functional
[9] = blockers of bursicon-stimulated LGR2 cAMP reporter – cell-based, HEK293, CRE-luciferase reporter, cherry pick, set 2, dose response (AID 743343); format: functional;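 note: transfected cells were stimulated with diluted bursicon conditioned medium after compound addition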
[10] = molecular target: Disintegrin and metalloproteinase domain-containing protein 17 (Homo sapiens, UniProt P78536); assay: inhibition of ADAM17 substrate cleavage – biochemical, quenched FRET substrate, counter-screen for ADAM10 exosite inhibitor project, dose response (AID 743253)
[11] = potency of ADAM10 substrate cleavage blockers – biochemical, QFRET, dose response (AID 743254);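 note: ADAM10 enzyme with the DM2 quenched FRET peptide as substrate; EDANS fluorescence gain as the protease cuts the substrate; inhibitor potency against ADAM10 proteolytic activity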
[12] = A549 cell cytotoxicity, dose response, cytotoxicity control, plate reader, cherry-pick, antagonist series (AID 743412); format: functional, cell-based
[13] = toxicity toward HepG2 liver cells – cell-based, plate reader, cherry-pick, antagonist series, cytotoxicity control, dose response (AID 743416); format: functional
[14] = molecular target: Induced myeloid leukemia cell differentiation protein Mcl-1 (Homo sapiens, UniProt Q07820); format: functional
[15] = molecular target: NAD-dependent protein deacylase sirtuin-5, mitochondrial (Homo sapiens, UniProt Q9NXA8); assay: sirtuin-5 deacylation blockers, concentration series – biochemical, fluorescence imaging, cherry-pick, set 5, dose response (AID 720591);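 note: desuccinylation of succinyl peptide AMC substrate read as fluorescence after trypsin release; potency of inhibitors that lower fluorescence and may act on trypsin instead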
[16] = blockers of HIV-1 envelope-mediated cell-cell fusion – cherry-pick, dose response (AID 652057); format: functional, cell-based
[17] = viability loss in CEM21 cells – cell-based, CellTiter-Glo luminescence, cherry-picked, cytotoxicity control for viral fusion inhibitor project, dose response (AID 652042); format: functional;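 note: potency for signal decrease meaning cytotoxicity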
[18] = blockers of HIV-1 ZM109 envelope-driven cell-cell fusion – HeLa effector, CEM target cells, luciferase, cherry-pick, dose response (AID 652058); format: functional, cell-based;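 note: luciferase signal from HIV-1 Env mediated cell-cell fusion of effector and target cells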
[19] = off-target signal loss in HeLa-CEM21 co-culture – HeLa F-luc CTL cells, cherry-picked, counter-screen for HIV-1 Env fusion inhibitor project, dose response (AID 652040); format: functional, cell-based;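 note: potency for signal decrease marking cytotoxic or nonspecific inhibition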

NAD-dependent protein deacylase sirtuin-5, mitochondrial, sequence (Q9NXA8 whole entry, the tested form may be a part): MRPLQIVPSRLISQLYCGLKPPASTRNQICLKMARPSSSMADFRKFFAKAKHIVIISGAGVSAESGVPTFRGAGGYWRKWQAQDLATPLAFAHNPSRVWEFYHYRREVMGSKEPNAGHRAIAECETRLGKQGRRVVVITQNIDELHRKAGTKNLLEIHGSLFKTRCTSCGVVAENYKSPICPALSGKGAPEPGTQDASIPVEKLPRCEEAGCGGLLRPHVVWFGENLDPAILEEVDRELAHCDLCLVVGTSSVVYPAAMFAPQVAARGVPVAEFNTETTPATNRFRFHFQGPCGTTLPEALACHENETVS
Induced myeloid leukemia cell differentiation protein Mcl-1, sequence (Q07820 whole entry): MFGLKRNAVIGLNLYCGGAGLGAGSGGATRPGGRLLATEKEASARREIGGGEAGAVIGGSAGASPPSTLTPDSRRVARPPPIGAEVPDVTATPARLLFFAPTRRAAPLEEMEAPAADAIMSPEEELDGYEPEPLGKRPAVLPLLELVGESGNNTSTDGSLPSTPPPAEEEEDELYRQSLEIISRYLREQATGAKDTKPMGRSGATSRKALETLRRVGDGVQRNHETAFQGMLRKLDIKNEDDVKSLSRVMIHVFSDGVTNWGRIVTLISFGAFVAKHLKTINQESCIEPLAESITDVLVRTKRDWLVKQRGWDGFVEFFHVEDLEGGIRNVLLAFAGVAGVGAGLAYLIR
Disintegrin and metalloproteinase domain-containing protein 17, sequence (P78536 whole entry, the tested form may be a part): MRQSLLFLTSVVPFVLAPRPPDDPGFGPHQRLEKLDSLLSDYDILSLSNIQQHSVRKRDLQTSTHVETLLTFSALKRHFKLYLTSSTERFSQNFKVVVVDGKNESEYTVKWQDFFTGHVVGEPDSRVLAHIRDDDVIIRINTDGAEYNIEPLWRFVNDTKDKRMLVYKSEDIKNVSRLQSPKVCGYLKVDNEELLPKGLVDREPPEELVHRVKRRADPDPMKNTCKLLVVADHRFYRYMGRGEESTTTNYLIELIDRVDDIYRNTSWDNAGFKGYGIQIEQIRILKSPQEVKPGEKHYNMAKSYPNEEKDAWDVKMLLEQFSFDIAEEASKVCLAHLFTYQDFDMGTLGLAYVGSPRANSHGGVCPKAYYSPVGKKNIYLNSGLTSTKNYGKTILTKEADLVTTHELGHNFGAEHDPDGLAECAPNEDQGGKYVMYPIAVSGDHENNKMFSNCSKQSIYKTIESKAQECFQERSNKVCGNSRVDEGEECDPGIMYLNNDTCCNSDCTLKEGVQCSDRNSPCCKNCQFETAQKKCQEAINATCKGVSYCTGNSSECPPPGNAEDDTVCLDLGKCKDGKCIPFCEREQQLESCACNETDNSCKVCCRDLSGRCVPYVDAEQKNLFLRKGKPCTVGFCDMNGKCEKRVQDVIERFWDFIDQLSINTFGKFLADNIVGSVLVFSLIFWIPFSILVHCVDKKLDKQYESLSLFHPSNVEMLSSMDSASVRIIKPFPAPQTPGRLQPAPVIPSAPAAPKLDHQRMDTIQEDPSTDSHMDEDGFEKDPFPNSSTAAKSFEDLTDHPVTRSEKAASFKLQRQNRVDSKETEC
Kallikrein-7, sequence (P49862 whole entry): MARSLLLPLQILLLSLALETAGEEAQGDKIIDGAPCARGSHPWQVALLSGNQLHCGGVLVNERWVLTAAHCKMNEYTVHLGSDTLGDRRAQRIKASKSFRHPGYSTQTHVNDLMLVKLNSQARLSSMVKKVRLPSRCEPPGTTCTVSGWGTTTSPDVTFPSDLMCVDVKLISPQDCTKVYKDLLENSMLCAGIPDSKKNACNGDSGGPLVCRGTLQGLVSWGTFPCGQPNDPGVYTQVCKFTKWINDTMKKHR
Eukaryotic translation initiation factor 4E, sequence (P63073 whole entry): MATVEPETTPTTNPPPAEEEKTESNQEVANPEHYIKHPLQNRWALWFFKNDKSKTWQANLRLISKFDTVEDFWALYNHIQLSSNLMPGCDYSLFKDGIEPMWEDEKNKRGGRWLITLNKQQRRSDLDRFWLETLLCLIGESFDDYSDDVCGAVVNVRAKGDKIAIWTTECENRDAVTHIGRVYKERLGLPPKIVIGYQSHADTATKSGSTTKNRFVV

Compound: Cc1ccc(NC(=O)CN2C(=O)N/C(=C/c3cc(C)n(-c4cccc(C(=O)O)c4)c3C)C2=O)cc1
- IC50 [1]: 7.94 µM (active)
- IC50 [2]: 50 µM (inactive)
- AC50 [3]: 27.5 µM (active)
- AC50 [4]: > 20 µM (inactive)

Compound: CC(=O)c1cc2c(cc1NS(=O)(=O)c1ccccc1Br)OCO2
- EC50 [5]: 66.2 µM (inactive)

Compound: Cc1ccc(C(=O)OCC(=O)Nc2ccc3c(c2)OCO3)cc1S(=O)(=O)N1CCOCC1
- AC50 [3]: > 100 µM (inactive)

Compound: CCCCN(CCCNC(=O)c1ccc2c(c1)NC(=O)CN2C)c1ccccc1
- CC50 [6]: > 25 µM (active)
- AC50 [7]: 23.9 µM (active)
- AC50 [8]: 16.7 µM (active)
- AC50 [9]: 21.6 µM (active)

Compound: COc1ccc(OC(F)(F)F)cc1CC1(C)C(=O)Nc2ccc(-c3ccsc3)cc21 (centres undefined)
- IC50 [10]: > 69.5 µM (inactive)
- IC50 [11]: 8.48 µM (active)

Compound: COc1cc(/C=N/Nc2nc(C)nc3c2cnn3-c2ccccc2)ccc1O
- AC50 [8]: > 52 µM (inactive)
- AC50 [12]: 8.71 µM (active)
- AC50 [13]: 27.1 µM (active)
- AC50 [9]: 23.1 µM (active)
- IC50 [14]: 9.67 µM (active)

Compound: CCCCC[C@H](C)N1C[C@@H](COCc2ccccc2)Oc2cc(N3CCC[C@H]3CO)ccc2S1(=O)=O
- AC50 [15]: > 30 µM (inactive)

Compound: CCCCCCCCN1C(=O)[C@H](CC(=O)NCC2CCCCC2)C[C@@]2(C(=O)OCC)CCC=C12
- AC50 [15]: 27.7 µM (active)

Compound: C[C@H]1CN([C@@H](C)CO)S(=O)(=O)c2ccc(-c3ccc(F)cc3)cc2O[C@H]1CN(C)Cc1cccc(F)c1
- AC50 [16]: 12.4 µM (active)
- AC50 [17]: 19.9 µM (active)

Compound: CCN(CC)C(=O)c1ncn2c1C(=O)NC[C@@H]2C
- AC50 [18]: 9.08 µM (active)
- AC50 [16]: 8.99 µM (active)
- AC50 [19]: 24.7 µM (active)
